In ChEMBL document CHEMBL3638971, “Fused pyrimidines” (2015) one finds IC50 data, which are given here for nine compounds.

Structures are written as SMILES. Several values for one entry are separate records, joined by “and”; a condition that tells them apart may be missing. Identical values can stand only once.

Experiment [1] deals with RAC-alpha serine/threonine-protein kinase (Homo sapiens, UniProt P31749). Briefly: TR-FRET Assay: Akt1 inhibitory activity of compounds of the present invention may be quantified0 employing the Akt1 TR-FRET assay as described in the following paragraphs. His-tagged human recombinant kinase full-length Akt1 expressed in insect cells was purchased form Invitrogen (part number PV 3599). As substrate for the kinase reaction the biotinylated peptide biotin-Ahx-KKLNRTLSFAEPG (C-terminus in am- ide form) was used which can be purchased e.g. from the company Biosynthan GmbH (Berlin-Buch, Germany).For the assay 50 nl of a IOOfold concentrated solution of the test compound in DMSO was pipetted into a black low volume 384well microtiter plate (Greiner Bio- One, Frickenhausen, Germany), 2 ul of a solution of Akt1 in assay buffer [50 mM TRIS/HCI pH 7.5, 5 mM MgCI2, 1 mM dithiothreitol, 0.02% (v/v) Triton X-100 (Sigma)] were added and the mixture was incubated for 15 min at 22C to allow pre-binding of the test compounds to the enzyme before the start of the kinase reaction.

Experiment [2] concerns the target RAC-beta serine/threonine-protein kinase (Homo sapiens, UniProt P31751). The experiment in a line: TR-FRET Assay: Akt2 inhibitory activity of compounds of the present invention was quantified employing the Akt2 TR-FRET assay as described in the following paragraphs.His-tagged human recombinant kinase full-length Akt2 expressed in insect cells and activated by PDK1 was purchased form Invitrogen (part number PV 3975). As substrate for the kinase reaction the biotinylated peptide biotin-Ahx- KKLNRTLSFAEPG (C-terminus in amide form) was used which can be purchased e.g. from the company Biosynthan GmbH (Berlinn-Buch, Germany). For the assay 50 nl of a 10Ofold concentrated solution of the test compound in DMSO was pipetted into a black low volume 384well microtiter plate (Greiner Bio- One, Frickenhausen, Germany), 2 ul of a solution of Akt2 in assay buffer [50 mM TRIS/HCI pH 7.5, 5 mM MgCI2, 1 mM dithiothreitol, 0.02% (v/v) Triton X-100 (Sigma)] were added and the mixture was incubated for 15 min at 22C to allow pre-binding of the test compounds to the enzyme before the start of the kinase reaction.

RAC-alpha serine/threonine-protein kinase, sequence (P31749 whole entry): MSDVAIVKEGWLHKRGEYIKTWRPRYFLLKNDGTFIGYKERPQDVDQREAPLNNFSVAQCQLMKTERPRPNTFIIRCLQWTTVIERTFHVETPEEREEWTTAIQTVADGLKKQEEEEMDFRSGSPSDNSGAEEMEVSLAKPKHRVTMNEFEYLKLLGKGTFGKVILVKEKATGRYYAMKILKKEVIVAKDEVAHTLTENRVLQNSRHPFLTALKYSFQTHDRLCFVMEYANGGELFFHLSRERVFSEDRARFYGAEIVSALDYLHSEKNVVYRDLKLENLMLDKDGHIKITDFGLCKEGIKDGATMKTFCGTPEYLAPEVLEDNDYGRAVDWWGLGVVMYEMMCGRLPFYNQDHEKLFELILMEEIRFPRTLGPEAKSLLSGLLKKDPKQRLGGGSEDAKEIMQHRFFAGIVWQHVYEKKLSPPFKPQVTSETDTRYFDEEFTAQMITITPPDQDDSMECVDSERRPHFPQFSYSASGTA
RAC-beta serine/threonine-protein kinase, sequence (P31751 whole entry): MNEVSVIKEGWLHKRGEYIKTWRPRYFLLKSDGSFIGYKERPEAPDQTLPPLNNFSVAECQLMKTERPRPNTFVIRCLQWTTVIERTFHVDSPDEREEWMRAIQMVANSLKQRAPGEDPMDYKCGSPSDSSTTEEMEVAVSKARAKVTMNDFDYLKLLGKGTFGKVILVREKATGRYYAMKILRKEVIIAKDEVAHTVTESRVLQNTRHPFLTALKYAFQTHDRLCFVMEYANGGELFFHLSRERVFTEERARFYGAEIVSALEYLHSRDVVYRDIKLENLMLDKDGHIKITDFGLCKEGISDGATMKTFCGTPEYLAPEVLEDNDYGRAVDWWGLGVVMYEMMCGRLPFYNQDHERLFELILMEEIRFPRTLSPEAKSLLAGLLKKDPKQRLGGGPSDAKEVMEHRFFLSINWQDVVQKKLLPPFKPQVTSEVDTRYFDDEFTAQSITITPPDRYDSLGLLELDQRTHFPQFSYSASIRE

As to `Cc1nc2nc(-c3ccc(CN4CC(c5n[nH]c(-c6ccccn6)n5)C4)cc3)c(-c3ccccc3)c(NC3CCC3)n2n1`, the results for the concentration for half-maximal inhibition (IC50) in experiment [1] and in experiment [2] were 32 nM and 374 nM, respectively.
Regarding `Cc1nc2nc(-c3ccc(CN4CC(c5n[nH]c(-c6ccccn6)n5)C4)cc3)c(-c3ccccc3)c(NC(C)C)n2n1`, the IC50 is 15 nM and 9 nM in experiment [1]; 31 nM and 20 nM in experiment [2].
In the case of `CSc1nc2nc(-c3ccc(CN4CCC(c5n[nH]c(-c6ccccn6)n5)CC4)cc3)c(-c3ccccc3)cn2n1`, the results for the IC50 in experiment [1] and in experiment [2] were 7 nM and 12 nM, respectively.
For `CS(=O)(=O)c1nc2nc(-c3ccc(CN4CCC(c5n[nH]c(-c6ccccn6)n5)CC4)cc3)c(-c3ccccc3)cn2n1`, the half-maximal inhibitory concentration (IC50) in experiment [1] turned out to be 54 nM; in experiment [2], 102 nM.
The corresponding values for `Cc1nc2nc(-c3ccc(CN4CC(c5n[nH]c(-c6ccccn6)n5)C4)cc3)c(-c3ccccc3)c(C)n2n1` are 7 nM and 17 nM.
Turning to `Cc1cccc(-c2nc(C3CN(Cc4ccc(-c5nc6nc(C)nn6c(C)c5-c5ccccc5)cc4)C3)n[nH]2)n1`, the IC50 in experiment [1] came to 10 nM; in experiment [2], 8 nM.
On to `CSc1nc2nc(-c3ccc(CN4CC(c5n[nH]c(-c6ccccn6)n5)C4)cc3)c(-c3ccccc3)cn2n1`, for which the 50% inhibitory concentration (IC50) came out at 5 nM in experiment [1] and 100 nM in experiment [2].
For `CNc1c(-c2ccccc2)c(-c2ccc(CN3CC(c4n[nH]c(-c5cccc(C)n5)n4)C3)cc2)nc2nc(C)nn12`, the IC50 in experiment [1] was determined as 11 nM; in experiment [2], 21 nM.
Take `CSc1nc2nc(-c3ccc(CN4CCC(c5n[nH]c(-c6cccc(C)n6)n5)CC4)cc3)c(-c3ccccc3)cn2n1`: the concentration for half-maximal inhibition (IC50) in experiment [1] was 5 nM; in experiment [2], 4 nM.
